Laboratory results: the supplement of paper PMC10307832

Experiments:
Experiment in all cases: relative viability (nuclei count vs DMSO), 5 days (fraction); higher = more cells survive
Tipifarnib + Crizotinib = compound: Cn1cncc1[C@@](N)(c1ccc(Cl)cc1)c1ccc2c(c1)c(-c1cccc(Cl)c1)cc(=O)n2C [Tipifarnib] + C[C@@H](Oc1cc(-c2cnn(C3CCNCC3)c2)cnc1N)c1c(Cl)ccc(F)c1Cl [Crizotinib] (partner 1 µM)
Method in brief: (§1)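 Five library-drug doses in √10 steps were combined with a fixed anchor-drug dose, or a single drug was given alone, by pin tool to lung cancer cell lines in 1536-well plates the day after seeding. Nuclei were stained and counted after 5 days. Relative viability is the nuclei count in treated wells over that in vehicle wells, taken as the median of duplicate plates.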

Tipifarnib + Phenformin = compound: Cn1cncc1[C@@](N)(c1ccc(Cl)cc1)c1ccc2c(c1)c(-c1cccc(Cl)c1)cc(=O)n2C [Tipifarnib] + N=C(N)NC(=N)NCCc1ccccc1 [Phenformin] (partner 250 µM)
Method in brief: as §1

Tipifarnib + Navitoclax = compound: Cn1cncc1[C@@](N)(c1ccc(Cl)cc1)c1ccc2c(c1)c(-c1cccc(Cl)c1)cc(=O)n2C [Tipifarnib] + CC1(C)CCC(c2ccc(Cl)cc2)=C(CN2CCN(c3ccc(C(=O)NS(=O)(=O)c4ccc(N[C@H](CCN5CCOCC5)CSc5ccccc5)c(S(=O)(=O)C(F)(F)F)c4)cc3)CC2)C1 [Navitoclax] (partner 0.5 µM)
Method in brief: as §1

Tipifarnib + Decitabine = compound: Cn1cncc1[C@@](N)(c1ccc(Cl)cc1)c1ccc2c(c1)c(-c1cccc(Cl)c1)cc(=O)n2C [Tipifarnib] + Nc1ncn([C@H]2C[C@H](O)[C@@H](CO)O2)c(=O)n1 [Decitabine] (partner 2 µM)
Method in brief: as §1

Cell Line	relative viability (Tipifarnib + Crizotinib; first compound 0.01 µM)	relative viability (Tipifarnib + Crizotinib; first compound 0.03162 µM)	relative viability (Tipifarnib + Crizotinib; first compound 0.1 µM)	relative viability (Tipifarnib + Crizotinib; first compound 0.3162 µM)	relative viability (Tipifarnib + Crizotinib; first compound 1 µM)	relative viability (Tipifarnib + Phenformin; first compound 0.01 µM)	relative viability (Tipifarnib + Phenformin; first compound 0.03162 µM)	relative viability (Tipifarnib + Phenformin; first compound 0.1 µM)	relative viability (Tipifarnib + Phenformin; first compound 0.3162 µM)	relative viability (Tipifarnib + Phenformin; first compound 1 µM)	relative viability (Tipifarnib + Navitoclax; first compound 0.01 µM)	relative viability (Tipifarnib + Navitoclax; first compound 0.03162 µM)	relative viability (Tipifarnib + Navitoclax; first compound 0.1 µM)	relative viability (Tipifarnib + Navitoclax; first compound 0.3162 µM)	relative viability (Tipifarnib + Navitoclax; first compound 1 µM)	relative viability (Tipifarnib + Decitabine; first compound 0.01 µM)	relative viability (Tipifarnib + Decitabine; first compound 0.03162 µM)	relative viability (Tipifarnib + Decitabine; first compound 0.1 µM)	relative viability (Tipifarnib + Decitabine; first compound 0.3162 µM)	relative viability (Tipifarnib + Decitabine; first compound 1 µM)
201T	1.05	0.909	0.987	0.954	0.885	0.493	0.441	0.457	0.402	0.362	1.21	1.23	1.2	1.15	1.18	0.875	0.841	0.88	0.783	0.816
A549	0.499	0.313	0.238	0.155	0.121	0.181	0.116	0.108	0.0861	0.0622	1.18	0.981	0.678	0.531	0.341	0.243	0.32	0.143	0.124	0.0674
A-427	1.01	0.866	0.782	0.732	0.844	0.31	0.272	0.319	0.227	0.226	1	0.951	0.955	0.874	0.812	0.621	0.548	0.574	0.478	0.449
ABC-1	1.05	–	0.609	0.676	0.452	0.241	–	0.264	0.242	0.231	–	–	–	–	–	1.33	1.03	1.13	0.738	0.706
BEN	0.928	0.939	0.731	0.684	0.636	0.294	0.272	0.273	0.255	0.262	0.0636	0.0524	0.0587	0.0688	0.0536	0.748	0.759	0.66	0.699	0.503
CAL-12T	0.567	0.387	0.334	0.173	0.228	0.533	0.414	0.379	0.378	0.231	1.21	1.1	0.768	0.526	0.716	–	–	–	–	–
COR-L23	0.731	0.341	0.3	0.248	0.386	0.469	0.351	0.361	0.305	0.238	1.15	0.804	0.679	0.492	0.556	0.526	0.329	0.375	0.347	0.288
COR-L 105	0.538	0.392	0.383	0.407	0.317	0.387	0.389	0.447	0.339	0.281	0.874	0.578	0.739	0.576	0.559	0.635	0.636	0.478	0.479	0.473
Calu-6	0.694	0.566	0.452	0.434	0.344	–	–	–	–	–	0.538	0.35	0.196	0.194	0.2	–	–	–	–	–
ChaGo-K-1	1.12	1.23	0.762	0.992	0.484	0.451	0.518	0.464	0.412	0.273	1.07	1.11	1.09	0.933	0.626	0.542	0.535	0.549	0.483	0.465
EBC-1	0.195	0.198	0.215	0.206	0.172	–	–	–	–	–	0.27	0.187	0.207	0.143	0.186	–	–	–	–	–
EKVX	0.932	0.936	0.733	0.618	0.581	0.238	0.214	0.229	0.211	0.173	1.01	0.861	0.841	0.744	0.49	0.299	0.34	0.261	0.289	0.275
EMC-BAC-2	0.737	0.621	0.659	0.534	0.526	0.501	0.437	0.459	0.485	0.357	1.2	1.12	1.06	0.993	0.816	1.11	0.853	0.84	0.681	0.562
EPLC-272H	1	0.722	0.766	0.64	0.265	0.357	0.328	0.344	0.266	0.149	1.34	0.908	1.07	0.837	0.741	0.426	0.404	0.37	0.298	0.246
H3255	0.834	0.9	0.708	0.519	0.543	0.376	0.436	0.395	0.344	0.353	0.546	0.568	0.496	0.35	0.299	0.685	0.556	0.605	0.48	0.492
HARA	1.07	0.917	1	1.01	1.02	0.52	0.494	0.501	0.412	0.156	1.18	1.14	1.18	1.14	1.13	0.758	0.593	0.515	0.625	0.435
HCC-15	0.666	0.601	0.396	0.41	0.448	0.407	0.392	0.368	0.338	0.223	0.66	0.618	0.555	0.335	0.334	0.496	0.523	0.48	0.263	0.238

Cell Line	relative viability (Tipifarnib + Crizotinib; first compound 0.01 µM)	relative viability (Tipifarnib + Crizotinib; first compound 0.03162 µM)	relative viability (Tipifarnib + Crizotinib; first compound 0.1 µM)	relative viability (Tipifarnib + Crizotinib; first compound 0.3162 µM)	relative viability (Tipifarnib + Crizotinib; first compound 1 µM)	relative viability (Tipifarnib + Phenformin; first compound 0.01 µM)	relative viability (Tipifarnib + Phenformin; first compound 0.03162 µM)	relative viability (Tipifarnib + Phenformin; first compound 0.1 µM)	relative viability (Tipifarnib + Phenformin; first compound 0.3162 µM)	relative viability (Tipifarnib + Phenformin; first compound 1 µM)	relative viability (Tipifarnib + Navitoclax; first compound 0.01 µM)	relative viability (Tipifarnib + Navitoclax; first compound 0.03162 µM)	relative viability (Tipifarnib + Navitoclax; first compound 0.1 µM)	relative viability (Tipifarnib + Navitoclax; first compound 0.3162 µM)	relative viability (Tipifarnib + Navitoclax; first compound 1 µM)	relative viability (Tipifarnib + Decitabine; first compound 0.01 µM)	relative viability (Tipifarnib + Decitabine; first compound 0.03162 µM)	relative viability (Tipifarnib + Decitabine; first compound 0.1 µM)	relative viability (Tipifarnib + Decitabine; first compound 0.3162 µM)	relative viability (Tipifarnib + Decitabine; first compound 1 µM)
HCC-44	0.749	0.698	0.599	0.576	0.568	0.214	0.107	0.166	0.18	0.109	1.06	0.944	0.784	0.726	0.696	0.869	0.846	0.934	0.847	0.804
HCC-78	0.321	0.357	0.303	0.29	0.266	0.699	0.756	0.611	0.558	0.423	0.752	0.896	0.743	0.59	0.302	0.786	0.756	0.719	0.664	0.514
IA-LM	0.533	0.548	0.291	0.272	0.263	–	–	–	–	–	0.388	0.378	0.296	0.251	0.164	–	–	–	–	–
LCLC-103H	1.01	1.01	0.893	0.87	0.85	0.326	0.319	0.275	0.267	0.295	–	–	–	–	–	0.757	0.672	0.785	0.635	0.673
NCI-H358	0.563	0.261	0.35	0.245	0.23	0.372	0.45	0.307	0.323	0.168	–	–	–	–	–	0.202	0.203	0.243	0.278	0.183
NCI-H522	–	–	–	–	–	0.617	0.698	0.65	0.599	0.563	–	–	–	–	–	0.657	0.725	0.582	0.586	0.592
NCI-H650	0.773	0.679	0.442	0.437	0.345	0.411	0.419	0.419	0.408	0.277	–	–	–	–	–	0.352	0.33	0.341	0.251	0.305
NCI-H661	1.02	0.935	0.785	0.837	0.786	0.29	0.283	0.275	0.261	0.309	–	–	–	–	–	0.646	0.564	0.525	0.503	0.531
NCI-H1299	0.903	0.841	0.795	0.832	0.81	–	–	–	–	–	0.966	0.969	0.977	0.88	0.828	–	–	–	–	–
NCI-H1395	–	–	–	–	–	0.444	0.398	0.428	0.436	0.348	1.17	0.936	0.978	0.835	0.799	0.7	0.674	0.59	0.626	0.654
NCI-H1563	0.841	0.81	0.853	0.813	0.888	0.631	0.696	0.655	0.637	0.577	–	–	–	–	–	–	–	–	–	–
NCI-H1648	–	–	–	–	–	–	–	–	–	–	–	–	–	–	–	0.603	0.48	0.608	0.51	0.338
NCI-H1703	0.311	0.291	0.171	0.155	0.196	–	–	–	–	–	1.1	0.563	0.27	0.359	0.364	–	–	–	–	–
NCI-H1793	–	–	–	–	–	0.357	0.371	0.354	0.194	0.267	0.409	0.481	0.441	0.373	0.353	0.555	0.427	0.374	0.338	0.365
NCI-H2228	0.413	0.443	0.45	0.293	0.348	0.25	0.286	0.379	0.222	0.138	0.878	0.71	1.06	0.735	0.527	–	–	–	–	–
NCI-H2342	–	–	–	–	–	0.676	0.649	0.491	0.487	0.399	–	–	–	–	–	0.778	0.782	0.683	0.555	0.557
SW 900	–	–	–	–	–	0.405	0.216	0.365	0.244	0.207	–	–	–	–	–	0.387	0.39	0.294	0.368	0.402
